# Laboratory results reported in patent US4954437A, “Cell encoding recombinant human erythropoietin” (Integrated Genetics, Inc., priority 1986, dated 1990).
# Square brackets hold non-standard residues; d marks the D form. Peptide text beside a SMILES is read from it. * marks the point of attachment. Sta = CC(C)C[C@H](N)[C@@H](O)CC(=O)O; Isovaleryl = CC(C)CC(=O)*
# Tests used:
# [1] = system: proteases that are active at PH5.0; test: Protease inhibitors preventing EPO degradation at pH5.0 in 10X concentrated EPO medium, assayed by RIA; assay type: biochemical
# Description: (§1) The addition of a dye column to step 1 gives some additional purification and, more importantly, removes contaminating proteases from EPO and consequently allows higher EPO recoveries at the S-Sepharose Fast Flow step. The clarified media was loaded on a Blue Trisacryl-M column (Pharmacia) equilibrated with 10 mM NaPO4 pH6.0, 150 mM NaCl and eluted with a linear salt gradient of 0.15 to 2.5 M NaCl in 10 mM NaPO4 pH6.0 and then flow-dialyzed into 50 mM Na Acetate, pH5.0 containing 15mM NaCl. The recovery of EPO from the Blue Trisacryl column was almost complete and the recovery on the following S-Sepharose Fast Flow column was 86% compared to 60% in example 1. […] This degradation seems to be caused by proteases that are active at PH5.0. The improved yields in step 2 as illustrated in this example can be attributed to the separation of proteases from the EPO protein by the Blue Trisacryl column. (Other commercially available dyes can also be used.)
# Protease inhibitors can also be added to the conditioned medium in order to improve EPO yields. Several commercially available protease inhibitors were tested to see if they could prevent EPO degradation at pH5.0. 10X concentrated (Step 1) EPO medium was diluted 1:10 in 50mM Na Acetate, pH5.0 and then incubated at 37° C. with or without protease inhibitors at a concentration of 5 micrograms/ml. […]
# [2] = Degradation of EPO incubated at 37° C. under mildly acidic conditions at pH5.0; assay type: physicochemical; conditions: 10X concentrated medium or partially purified step 2 material
# Description: as §1
# Polycythemic mouse = Polycythemic mouse assay (in vivo biological assay); conditions: for biological activity in in vivo assays: purified rEPO from CES9dog conditioned medium
# Description: (§2) When the cells were confluent, the supernatants were assayed for EPO expression and the cells were counted and frozen. To test the reproducibility and stability of these cell lines, the 21 highest producing cell lines were thawed and rescreened for 24 hours expression levels on a per cell basis. The five highest producers (3CES and 2CEG transformants) were chosen and expanded into roller bottles to test for growth and production properties. Representative 24 hour culture fluids from cell lines CES9dog and CEG4d in T-75 flasks contained 600U/ml and 800U/ml of rEPO as measured by the ^3 H-thy uptake assay using human urinary EPO as a standard and 490 and 540U/ml when measured by the ^59 Fe incorporation assay into rat bone marrow cells in vitro (Goldwasser et al., 1975, Endocrinology 97:315.). These samples were also active in vivo in the Polycythemic mouse assay as described by Cotes et al., 1961, Nature 191:1065.
# rat bone marrow cells = test: In vitro biological assays (3H-thy uptake assay, 59Fe incorporation into rat bone marrow cells); assay type: cell-based; conditions: purified rEPO from CES9dog conditioned medium
# Description: Foci, representing BPV transformed C127 cells, were detectable 10-14 days after transfection. Supernatants from Plates containing transformants were assayed 17 days after transfection by the ^3 H-thy uptake assay (Krystal 1983, Exp. Hematol., 11/7, 649) and found to contain EPO. 21/2 to 3 weeks after transfection, foci were isolated by the cloning ring method and transferred to T-25 flasks. After the cells reached approximately 20% confluency, the supernatants were tested for EPO production by the ^3 H-thy uptake assay. A total of 76 cell lines (15 CEM, 35 CES and 26 CEG transformants) were transferred into T-75 flasks.
# as §2, with “The five highest producers (3CES and 2CEG transformants) were chosen and expanded into roller bottles to test for growth and production properties.” left out, “These samples were also active in vivo in the Polycythemic mouse assay as described by Cotes et al., 1961, Nature 191:1065.” left out
Compound,"effect on EPO immunoactivity at pH5.0 ([1]; 5 micrograms/ml, 50mM Na Acetate pH5.0, 37° C., over 29 hours, RIA)","IC50 (the concentration at which 50% of the proteases are inhibited) ([1]; 10X concentrated medium, pH5.0, 37° C., 25 hours, RIA (FIG. 9))",t1/2 of degradation [2],activity in vivo in the Polycythemic mouse assay (Polycythemic mouse; 24 hour culture fluids from cell lines CES9dog and CEG4d),biological activity in in vivo assays (Polycythemic mouse),biological activity in in vivo assays (Polycythemic mouse; listed as EPO),biological activity in in vitro assays (rat bone marrow cells),biological activity in in vitro assays (rat bone marrow cells; listed as EPO)
"CC(C)CC(=O)N[C@H](C(=O)N[C@H](C(=O)N[C@@H](CC(C)C)[C@@H](O)CC(=O)N[C@@H](C)C(=O)N[C@@H](CC(C)C)[C@@H](O)CC(=O)O)C(C)C)C(C)C [Pepstatin, pepstatin] (Isovaleryl-VV[Sta]A[Sta]-OH)",significant stabilizing effect,approximately 0.02 ug/ml,,,,,,
"rEPO: recombinant human erythropoietin produced by BPV transformed mouse C127 cells, N- and O-glycosylated",,,approx. 4 h,active,high biological activity,high potency,high biological activity,high potency
